Laboratory results from PubChem BioAssay (NCI).
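The concentration for 50% growth inhibition is given as GI50. The concentration for full growth arrest is given as TGI.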

How the values were obtained:
Experiment in all cases: NCI anticancer screen, dose series, 384-well format
MDA-MB-231 breast = test system: MDA-MB-231 breast
IGROV1 ovarian = test system: IGROV1 ovarian
HS 578T breast = test system: HS 578T breast
TK-10 renal = test system: TK-10 renal
T-47D breast = test system: T-47D breast
NCI-H460 NSCLC = test system: NCI-H460 NSCLC
SW-620 colon = test system: SW-620 colon
SNB-75 CNS = test system: SNB-75 CNS
U251 glioblastoma = test system: U251 glioblastoma
MALME-3M melanoma = test system: MALME-3M melanoma
SF-268 CNS = test system: SF-268 CNS
NCI/ADR-RES ovarian = test system: NCI/ADR-RES ovarian
CCRF-CEM leukemia = test system: CCRF-CEM leukemia
KM12 colon = test system: KM12 colon
NCI-H522 lung = test system: NCI-H522 lung
M14 melanoma = test system: M14 melanoma
SK-OV-3 ovarian = test system: SK-OV-3 ovarian
OVCAR-5 ovarian = test system: OVCAR-5 ovarian
MOLT-4 leukemia = test system: MOLT-4 leukemia
HCC-2998 colon = test system: HCC-2998 colon
SNB-19 CNS = test system: SNB-19 CNS
A498 renal = test system: A498 renal
HT29 colon = test system: HT29 colon
SF-295 CNS = test system: SF-295 CNS
HL-60(TB) leukemia = test system: HL-60(TB) leukemia
SK-MEL-2 melanoma = test system: SK-MEL-2 melanoma
K-562 leukemia = test system: K-562 leukemia
HCT-15 colon = test system: HCT-15 colon
COLO 205 colon = test system: COLO 205 colon
NCI-H322M lung = test system: NCI-H322M lung
PC-3 prostate = test system: PC-3 prostate
UO-31 renal = test system: UO-31 renal
MDA-MB-435 melanoma = test system: MDA-MB-435 melanoma
HOP-62 NSCLC = test system: HOP-62 NSCLC
MDA-MB-468 breast = test system: MDA-MB-468 breast
A549 NSCLC = test system: A549 NSCLC
DU-145 prostate = test system: DU-145 prostate
OVCAR-3 ovarian = test system: OVCAR-3 ovarian
SF-539 CNS = test system: SF-539 CNS
CAKI-1 renal = test system: CAKI-1 renal
LOX IMVI melanoma = test system: LOX IMVI melanoma
HOP-92 NSCLC = test system: HOP-92 NSCLC
SK-MEL-5 melanoma = test system: SK-MEL-5 melanoma
NCI-H226 lung = test system: NCI-H226 lung
NCI-H23 lung = test system: NCI-H23 lung
MCF7 breast = test system: MCF7 breast
RXF 393 renal = test system: RXF 393 renal
UACC-257 melanoma = test system: UACC-257 melanoma
SK-MEL-28 melanoma = test system: SK-MEL-28 melanoma
UACC-62 melanoma = test system: UACC-62 melanoma
HCT-116 colon = test system: HCT-116 colon
786-0 renal = test system: 786-0 renal
BT-549 breast = test system: BT-549 breast
EKVX NSCLC = test system: EKVX NSCLC
OVCAR-4 ovarian = test system: OVCAR-4 ovarian
RPMI-8226 leukemia = test system: RPMI-8226 leukemia
SR leukemia = test system: SR leukemia
ACHN renal = test system: ACHN renal
SN12C renal = test system: SN12C renal
OVCAR-8 ovarian = test system: OVCAR-8 ovarian

## Cc1nc(N)sc1-c1ccnc(Nc2ccc(N3CCOCC3)cc2)n1
MDA-MB-231 breast
  GI50: 371 nM
  TGI: 4950 nM
IGROV1 ovarian
  GI50: 305 nM
  TGI: 2090 nM
HS 578T breast
  GI50: 302 nM
  TGI: 1560 nM
TK-10 renal
  GI50: 376 nM
  TGI: 7480 nM
T-47D breast
  GI50: 5420 nM
  TGI: 68600 nM
NCI-H460 NSCLC
  GI50: 224 nM
  TGI: 3130 nM
SW-620 colon
  GI50: 397 nM
  TGI: 2390 nM
SNB-75 CNS
  GI50: 653 nM
  TGI: 2410 nM
U251 glioblastoma
  GI50: 1540 nM
  TGI: 17900 nM
MALME-3M melanoma
  GI50: 2700 nM
  TGI: > 100000 nM
SF-268 CNS
  GI50: 663 nM
  TGI: 5730 nM
NCI/ADR-RES ovarian
  GI50: 2650 nM
  TGI: > 100000 nM
CCRF-CEM leukemia
  GI50: 127 nM
  TGI: 1060 nM
KM12 colon
  GI50: 378 nM
  TGI: 15300 nM
NCI-H522 lung
  GI50: 142 nM
  TGI: 3020 nM
M14 melanoma
  GI50: 2410 nM
  TGI: 28000 nM
SK-OV-3 ovarian
  GI50: 411 nM
  TGI: 4870 nM
OVCAR-5 ovarian
  GI50: 854 nM
  TGI: 9330 nM
MOLT-4 leukemia
  GI50: 22.4 nM
  TGI: 115 nM
HCC-2998 colon
  GI50: 3880 nM
  TGI: 42000 nM
SNB-19 CNS
  GI50: 4420 nM
  TGI: > 100000 nM
A498 renal
  GI50: 433 nM
  TGI: 3720 nM
HT29 colon
  GI50: 596 nM
  TGI: 2140 nM
SF-295 CNS
  GI50: 627 nM
  TGI: 5700 nM
HL-60(TB) leukemia
  GI50: 642 nM
  TGI: 2400 nM
SK-MEL-2 melanoma
  GI50: 2190 nM
  TGI: 5560 nM
K-562 leukemia
  GI50: 1150 nM
  TGI: > 100000 nM
HCT-15 colon
  GI50: 328 nM
  TGI: 15300 nM
COLO 205 colon
  GI50: 756 nM
  TGI: 16200 nM
NCI-H322M lung
  GI50: 1650 nM
  TGI: 26900 nM
PC-3 prostate
  GI50: 463 nM
  TGI: 8530 nM
UO-31 renal
  GI50: 619 nM
  TGI: 3090 nM
MDA-MB-435 melanoma
  GI50: 1740 nM
  TGI: 18700 nM
HOP-62 NSCLC
  GI50: 504 nM
  TGI: 4580 nM
MDA-MB-468 breast
  GI50: 132 nM
  TGI: 330 nM
A549 NSCLC
  GI50: 440 nM
  TGI: 7610 nM
DU-145 prostate
  GI50: 709 nM
  TGI: 75500 nM
OVCAR-3 ovarian
  GI50: 1070 nM
  TGI: 23100 nM
SF-539 CNS
  GI50: 499 nM
  TGI: 1900 nM
CAKI-1 renal
  GI50: 381 nM
  TGI: 2050 nM
LOX IMVI melanoma
  GI50: 767 nM
  TGI: 2530 nM
HOP-92 NSCLC
  GI50: 433 nM
  TGI: 4490 nM
SK-MEL-5 melanoma
  GI50: 1600 nM
  TGI: 8430 nM
NCI-H226 lung
  GI50: 416 nM
  TGI: 2530 nM
NCI-H23 lung
  GI50: 1380 nM
  TGI: 7560 nM
MCF7 breast
  GI50: 1620 nM
  TGI: 23200 nM
RXF 393 renal
  GI50: 922 nM
  TGI: 2570 nM
UACC-257 melanoma
  GI50: 3680 nM
  TGI: 9900 nM
SK-MEL-28 melanoma
  GI50: 1380 nM
  TGI: 7040 nM
UACC-62 melanoma
  GI50: 482 nM
  TGI: 3370 nM
HCT-116 colon
  GI50: 557 nM
  TGI: 4160 nM
786-0 renal
  GI50: 1420 nM
  TGI: 6740 nM
BT-549 breast
  GI50: 190 nM
  TGI: 676 nM
EKVX NSCLC
  GI50: 1350 nM
  TGI: 5830 nM
OVCAR-4 ovarian
  GI50: 46000 nM
  TGI: > 100000 nM
RPMI-8226 leukemia
  GI50: 375 nM
  TGI: 2120 nM
SR leukemia
  GI50: 32.9 nM
  TGI: 121 nM

## CCN1CCN(c2ccc(Nc3cc(N(C)C(=O)Nc4c(Cl)c(OC)cc(OC)c4Cl)ncn3)cc2)CC1
MDA-MB-231 breast
  GI50: 2130 nM
  TGI: 4720 nM
IGROV1 ovarian
  GI50: 273 nM
  TGI: 702 nM
HS 578T breast
  GI50: 1190 nM
  TGI: 2500 nM
TK-10 renal
  GI50: 1550 nM
  TGI: 3440 nM
T-47D breast
  GI50: 453 nM
  TGI: 1420 nM
NCI-H460 NSCLC
  GI50: 1230 nM
  TGI: 2530 nM
SW-620 colon
  GI50: 1840 nM
  TGI: 3470 nM
SNB-75 CNS
  GI50: 193 nM
  TGI: 2290 nM
U251 glioblastoma
  GI50: 1460 nM
  TGI: 2800 nM
MALME-3M melanoma
  GI50: 1470 nM
  TGI: 2800 nM
SF-268 CNS
  GI50: 1110 nM
  TGI: 2610 nM
NCI/ADR-RES ovarian
  GI50: 2160 nM
  TGI: 4890 nM
CCRF-CEM leukemia
  GI50: 1580 nM
  TGI: 2950 nM
KM12 colon
  GI50: 2230 nM
  TGI: 4300 nM
NCI-H522 lung
  GI50: 475 nM
  TGI: 1460 nM
M14 melanoma
  GI50: 1390 nM
  TGI: 2690 nM
SK-OV-3 ovarian
  GI50: 365 nM
  TGI: 1360 nM
OVCAR-5 ovarian
  GI50: 2180 nM
  TGI: 5140 nM
MOLT-4 leukemia
  GI50: 1170 nM
  TGI: 2390 nM
HCC-2998 colon
  GI50: 1920 nM
  TGI: 3890 nM
SNB-19 CNS
  GI50: 2500 nM
  TGI: 7510 nM
A498 renal
  GI50: 478 nM
  TGI: 1920 nM
HT29 colon
  GI50: 756 nM
  TGI: 2020 nM
SF-295 CNS
  GI50: 1750 nM
  TGI: 3160 nM
HL-60(TB) leukemia
  GI50: 1880 nM
  TGI: 3300 nM
K-562 leukemia
  GI50: 430 nM
  TGI: 1480 nM
HCT-15 colon
  GI50: 688 nM
  TGI: 2390 nM
COLO 205 colon
  GI50: 1940 nM
  TGI: 3440 nM
ACHN renal
  GI50: 1400 nM
  TGI: 3000 nM
NCI-H322M lung
  GI50: 2300 nM
  TGI: 6250 nM
PC-3 prostate
  GI50: 2040 nM
  TGI: 4950 nM
UO-31 renal
  GI50: 1370 nM
  TGI: 2670 nM
MDA-MB-435 melanoma
  GI50: 1880 nM
  TGI: 3340 nM
HOP-62 NSCLC
  GI50: 1910 nM
  TGI: 3930 nM
MDA-MB-468 breast
  GI50: 1290 nM
  TGI: 2610 nM
A549 NSCLC
  GI50: 1910 nM
  TGI: 3850 nM
DU-145 prostate
  GI50: 1760 nM
  TGI: 5320 nM
OVCAR-3 ovarian
  GI50: 1040 nM
  TGI: 2340 nM
SF-539 CNS
  GI50: 1420 nM
  TGI: 2830 nM
SN12C renal
  GI50: 753 nM
  TGI: 2200 nM
CAKI-1 renal
  GI50: 590 nM
  TGI: 2120 nM
LOX IMVI melanoma
  GI50: 1660 nM
  TGI: 3060 nM
HOP-92 NSCLC
  GI50: 1700 nM
  TGI: 3360 nM
SK-MEL-5 melanoma
  GI50: 1300 nM
  TGI: 2580 nM
NCI-H226 lung
  GI50: 24.6 nM
  TGI: 5810 nM
NCI-H23 lung
  GI50: 2340 nM
  TGI: 6210 nM
MCF7 breast
  GI50: 1410 nM
  TGI: 2950 nM
RXF 393 renal
  GI50: 1290 nM
  TGI: 2590 nM
UACC-257 melanoma
  GI50: 1610 nM
  TGI: 2960 nM
SK-MEL-28 melanoma
  GI50: 1860 nM
  TGI: 3280 nM
UACC-62 melanoma
  GI50: 1720 nM
  TGI: 3130 nM
HCT-116 colon
  GI50: 1440 nM
  TGI: 2800 nM
786-0 renal
  GI50: 1430 nM
  TGI: 2760 nM
BT-549 breast
  GI50: 518 nM
  TGI: 1990 nM
EKVX NSCLC
  GI50: 1190 nM
  TGI: 2930 nM
OVCAR-8 ovarian
  GI50: 1770 nM
  TGI: 3380 nM
OVCAR-4 ovarian
  GI50: 1280 nM
  TGI: 3360 nM
RPMI-8226 leukemia
  GI50: 1900 nM
  TGI: 3330 nM
